The values that follow come from patent US11337970B2, “Inhibitors of indoleamine 2,3-dioxygenase and methods of their use” (BRISTOL-MYERS SQUIBB COMPANY, priority 2016, dated 2022).

Experiment [1] deals with T1, indoleamine 2,3-dioxygenase (IDO) (Homo sapiens, UniProt P14902).
T1 construct: host or cells: HeLa cells stimulated with IFNγ (25 ng/mL)
Briefly: HeLa cell-based indoleamine 2,3-dioxygenase (IDO) assay (kynurenine production). The settings on record: HeLa cells, IFNγ 25 ng/mL, 48 hour incubation, absorbance at 480 nm.

For another experiment, the target named is T2, human IDO1 (Homo sapiens, UniProt P14902).
T2 construct: expressed in transfected cells
In words: IDO inhibition assay in HEK293 cells stably expressing human IDO1 (kynurenine, Ehrlich reagent). The format is cell-based. Conditions: 20 hours incubation, absorbance at 490 nm, read-out: IDO1 HEK Human IC50. On the procedure: HEK293 cells were transfected with a pCDNA-based mammalian expression vector harboring human IDO1 cDNA (NM 002164.2) by electroporation. They were cultured in medium (DMEM with 10% FBS) containing 1 mg/ml G418 for two weeks. Clones of HEK293 cells that stably expressed human IDO1 protein were selected and expanded for IDO inhibition assay.
The human IDO1/HEK293 cells were seeded at 10,000 cells per 50 μL per well with RPMI/phenol red free media contains 10% FBS in a 384-well black wall clear bottom tissue culture plate (Matrix Technologies LLC) 100 nL of certain concentration of compound was then added to each well using ECHO liquid handling systems. The cells were incubated for 20 hours in 37° C. incubator with 5% CO2.
The compound treatments were stopped by adding trichloroacetic acid (Sigma-Aldrich) to a final concentration at 0.2%. The cell plate was further incubated at 50° C. for 30 minute. The equal volume supernatant (20 μL) and 0.2% (w/v) Ehrlich reagent (4-dimethylaminobenzaldehyde, Sigma-Aldrich) in glacial acetic acid were mixed in a new clear bottom 384-well plate. This plate was then incubated at room temperature for 30 minute. The absorbance at 490 nm was measured on Envision plate reader.
Compound IC50 values were calculated using the counts of 500 nM of a reference standard treatment as one hundred percent inhibition, and counts of no compound but DMSO treatment as zero percent inhibition.

T2 sequence (P14902 whole entry): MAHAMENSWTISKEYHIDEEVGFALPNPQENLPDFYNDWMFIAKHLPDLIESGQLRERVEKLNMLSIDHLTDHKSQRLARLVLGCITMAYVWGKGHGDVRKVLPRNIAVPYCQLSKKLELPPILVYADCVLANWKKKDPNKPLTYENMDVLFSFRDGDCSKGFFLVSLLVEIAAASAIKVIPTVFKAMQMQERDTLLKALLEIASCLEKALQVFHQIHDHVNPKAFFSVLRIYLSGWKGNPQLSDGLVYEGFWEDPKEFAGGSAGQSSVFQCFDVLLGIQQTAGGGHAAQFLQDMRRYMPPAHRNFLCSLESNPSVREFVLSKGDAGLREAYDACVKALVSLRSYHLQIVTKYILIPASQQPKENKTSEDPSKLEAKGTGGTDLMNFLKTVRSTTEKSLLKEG
T1 sequence (P14902 whole entry): as above

As a reminder, the IC50 is the midpoint of a concentration-inhibition curve. For the molecule `CC(c1nc2ccc(Cl)cc2[nH]1)C1CCC(c2ccnc3ccccc23)CC1` (single isomer, unassigned) [Example 16-2, (±)-4-(4-(1-(6-chloro-1H-benzo[d]imidazol-2-yl)ethyl)cyclohexyl)quinoline], the IC50 came to 5.7 nM in experiment [1] and 4.5 nM on human IDO1.

For `CC[C@H](c1nc2ccc(Cl)cc2[nH]1)[C@H]1CC[C@@H](c2ccnc3ccc(F)cc32)CC1` (single isomer, unassigned) [Example 15-4, 4-(4-(1-(6-chloro-1H-benzo[d]imidazol-2-yl)propyl)cyclohexyl)-6-fluoroquinoline], the IC50 in experiment [1] turned out to be 9.5 nM; on human IDO1, 6.6 nM.

Regarding `C=CC[C@@H](c1nc2ccc(Cl)cc2[nH]1)[C@H]1CC[C@@H](c2ccnc3ccc(F)cc32)CC1` [Example 32, 4-((1S,4s)-4-((R)-1-(6-chloro-1H-benzo[d]imidazol-2-yl)but-3-en-1-yl)cyclohexyl)-6-fluoroquinoline], the half-maximal inhibitory concentration (IC50) in experiment [1] is 2.8 nM; on human IDO1 it was 2 nM.

Consider `C[C@@H](c1nc2ncccc2[nH]1)[C@H]1CC[C@@H](c2ccnc3ccc(F)cc32)CC1` [Example 7, 4-((cis)-4-((R)-1-(1H-imidazo[4,5-b]pyridin-2-yl)ethyl)cyclohexyl)-6-fluoroquinoline], for which the values for the IC50 (in experiment [1]; at human IDO1) were 30.1 nM and 23.2 nM, respectively.

As to `CCC(c1nc2ccc(Cl)cc2[nH]1)[C@H]1CC[C@H](Oc2ccnc3ccccc23)CC1` (single isomer, unassigned) [Example 13-2, 4-(((trans)-4-(1-(6-chloro-1H-benzo[d]imidazol-2-yl)propyl)cyclohexyl)oxy)quinoline], the values for the IC50 (in experiment [1]; on human IDO1) were 8.9 nM and 3.4 nM, respectively.
